Measured values from article PMC9698663, “Testing Serum Albumins and Cyclodextrins as Potential Binders of the Mycotoxin Metabolites Alternariol-3-Sulfate, Alternariol-9-Monomethylether and Alternariol-9-Monomethylether-3-Sulfate” (International Journal of Molecular Sciences, 2022).
Counter-ions that a name gives are not always drawn. Like-named read-outs stand apart in the source and are kept apart here.

Columns and labels:
[1] = Fluorescence spectroscopic study of mycotoxin–SBECD complexes; assay type: binding; details: for SBECD logK (±SEM) BH-Plot / SBECD logK (±SEM) Hyperquad: binding constant K in L/mol; for SBECD logK (±SEM) BH-Plot: Benesi–Hildebrand plot; for SBECD logK (±SEM) BH-Plot / SBECD logK (±SEM) Hyperquad / logK with SBECD (approximate): sodium acetate buffer pH 5.0
Description: (§1) Fluorescence emission spectra were collected employing a Hitachi F-4500 fluorescence spectrophotometer (Tokyo, Japan) at 25 °C and in the presence of air. UV–Vis absorption spectra of AS, AME, and AMS were recorded using a Jasco V730 UV–Vis spectrophotometer (Tokyo, Japan). In fluorescence spectroscopic studies, the inner-filter effects of mycotoxins were corrected as has been previously reported.
(§2) To examine the interaction of mycotoxins with the two CDs selected (SBECD and SGD), increasing amounts of the CDs (final concentrations: 0–10 mM) were added to mycotoxins (each 1 μM), then fluorescence emission spectra were recorded (λex = 335 nm for AS/AMS and 350 nm for AME; λem = 455 nm for AS, 485 nm for AME, and 460 nm for AMS). Binding constants (K, unit: L/mol) of mycotoxin–CD complexes were calculated employing the graphical application of the Benesi–Hildebrand equation (linear fitting) and using Hyperquad software (non-linear fitting). The Benesi–Hildebrand equation [25, 43] has been described as:(2) F0/F−F0=1/A+1/A×K×CD^n where, F0 and F are the fluorescence emission intensities of the mycotoxin in the absence and presence of CDs, respectively. [CD] is the molar concentration (mol/L) of the CD, while A is a constant, and n is the number of binding sites. Hyperquad evaluations were performed as has been previously reported.

rat serum albumin (RSA) [2] = biological target: T1, rat serum albumin (RSA) (Rattus norvegicus, UniProt P02770); assay: Fluorescence quenching of rat serum albumin by mycotoxins; assay type: binding; details: for RSA logKSV (±SEM): Stern–Volmer quenching constant KSV in L/mol, linear fitting
T1 construct: purchased Merck (Darmstadt, Germany)
T1 sequence (P02770 25-608): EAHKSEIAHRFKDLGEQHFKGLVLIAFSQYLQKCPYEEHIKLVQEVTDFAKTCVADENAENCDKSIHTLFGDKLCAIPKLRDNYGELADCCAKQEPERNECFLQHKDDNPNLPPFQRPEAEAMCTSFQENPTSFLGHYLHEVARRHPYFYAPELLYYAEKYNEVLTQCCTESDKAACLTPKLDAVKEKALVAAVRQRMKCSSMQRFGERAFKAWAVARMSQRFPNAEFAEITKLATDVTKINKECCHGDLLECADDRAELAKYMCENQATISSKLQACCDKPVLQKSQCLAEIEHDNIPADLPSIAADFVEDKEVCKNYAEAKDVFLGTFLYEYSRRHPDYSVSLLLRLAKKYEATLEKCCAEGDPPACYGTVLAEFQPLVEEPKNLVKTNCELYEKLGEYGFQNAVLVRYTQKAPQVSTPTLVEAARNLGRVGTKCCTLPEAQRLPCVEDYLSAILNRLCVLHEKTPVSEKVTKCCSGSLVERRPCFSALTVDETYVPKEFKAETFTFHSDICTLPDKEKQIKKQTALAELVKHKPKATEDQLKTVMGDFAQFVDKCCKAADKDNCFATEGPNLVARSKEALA
Description: as §1
(§3) Then, fluorescence quenching studies were also performed, where increasing amounts of AS, AME, or AMS (final concentrations: 0–5 μM) were added to 2 μM concentrations of albumins (HSA, BSA, PSA, or RSA), after which emission spectra were recorded (λex = 295 nm). After the correction of the inner-filter effects, mycotoxin-induced changes were evaluated at 340 nm.
(§4) Quenching experiments were evaluated by employing the graphical application of the Stern–Volmer equation (linear fitting) and using HyperQuad2006 software (non-linear fitting). Stern–Volmer quenching constants (KSV; unit: L/mol) were determined based on the Stern–Volmer equation [30]:(1) I0/I=1+KSV×Q where I0 and I are the fluorescence emission intensities of albumin in the absence and presence of the quencher (mycotoxins), respectively; [Q] is the molar (mol/L) concentration of mycotoxins. Binding constants (K; unit: L/mol) were calculated using HyperQuad2006 software, as has been previously reported.

[3] = biological target: T2, human serum albumin (HSA) (Homo sapiens, UniProt P02768); assay: Ultracentrifugation studies (unbound fraction in presence of HSA); assay type: binding; design: purchased Merck (Darmstadt, Germany)
T2 sequence (P02768 25-609): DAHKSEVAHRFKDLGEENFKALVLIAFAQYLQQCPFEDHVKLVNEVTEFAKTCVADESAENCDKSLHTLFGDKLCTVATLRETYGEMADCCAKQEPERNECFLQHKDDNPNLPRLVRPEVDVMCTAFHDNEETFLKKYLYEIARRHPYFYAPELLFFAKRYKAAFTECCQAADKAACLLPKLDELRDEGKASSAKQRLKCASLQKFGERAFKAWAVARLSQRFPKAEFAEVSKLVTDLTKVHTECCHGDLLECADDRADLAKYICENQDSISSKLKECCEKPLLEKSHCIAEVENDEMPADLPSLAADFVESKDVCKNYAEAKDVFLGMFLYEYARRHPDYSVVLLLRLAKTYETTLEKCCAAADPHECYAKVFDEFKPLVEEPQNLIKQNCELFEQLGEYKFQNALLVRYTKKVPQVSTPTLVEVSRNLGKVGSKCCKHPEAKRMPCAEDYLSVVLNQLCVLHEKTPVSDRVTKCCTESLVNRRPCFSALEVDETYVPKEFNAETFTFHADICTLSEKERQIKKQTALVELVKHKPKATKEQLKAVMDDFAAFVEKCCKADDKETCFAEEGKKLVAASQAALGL
Description: To confirm the results of the quenching studies, the unbound fractions of AS, AME, and AMS were quantified in the presence of HSA. Applying the optimal conditions of ultracentrifugation, we can sediment albumin and albumin-bound molecules without the disruption of ligand–HSA interactions, then the free unbound fraction of the ligand molecule can be quantified from the protein-free supernatant. Samples contained AS, AME, or […] (each 10 μM) with HSA (20, 60, and 180 μM) in PBS (pH 7.4). These samples (900 μL) were centrifuged for 16 h at 170,000 g and 20 °C in 11 × 34 mm PC tubes (Beckman Coulter, Brea, CA, US), employing a Beckman Coulter Optima MAX-XP tabletop ultracentrifuge (with MLA-130 fixed-angle rotor). Then the concentrations of AS, AME, and AMS were directly analyzed from the supernatants with HPLC-FLD (see details in Section 3.7).
Assuming the 1:1 stoichiometry of complex formation, the binding constants (K) were calculated based on the following equation [36]:(3) K=MA/M×A where [M], [A], and [MA] are the molar concentrations (mol/L) of the free unbound mycotoxin, the free unbound albumin, and the mycotoxin–albumin complex, respectively.

[4] = biological target: T2, human serum albumin (HSA); assay: Ultrafiltration studies with Site I, Site II and Heme site markers; assay type: binding; design: purchased Merck (Darmstadt, Germany); details: mycotoxin 20 μM, PBS pH 7.4; for effect on filtered fraction of S-camptothecin (Heme site marker): camptothecin 1.0 μM + HSA 2.0 μM; for effect on filtered fraction of naproxen (Site II marker): naproxen 1.0 μM + HSA 1.5 μM; for effect on filtered fraction of warfarin (Site I marker): warfarin 1.0 μM + HSA 5.0 μM
Description: To test the binding sites of mycotoxin metabolites on HSA, ultrafiltration experiments were performed, where warfarin, naproxen, and S-camptothecin were used as Site I, Site II, and Heme site markers, respectively. Ultrafiltration studies were performed as described earlier, with minor modifications. Briefly, warfarin and naproxen samples were filtered using Amicon Ultra centrifugal filters (Merck, Darmstadt, Germany) with a 30 kDa molecular weight cut-off (MWCO) value. Camptothecin barely passed through these filters; therefore, the displacement of this Heme site marker was examined employing Pall Microsep Advance centrifugal devices (MWCO: 10 kDa; VWR, Budapest, Hungary). Each filter unit was washed once with water and once with PBS (pH 7.4). Thereafter, samples were centrifuged with a fixed angle rotor for 10 min at 7500 g and 25 °C. Before ultrafiltration, samples contained warfarin (1.0 μM) + HSA (5.0 μM), naproxen (1.0 μM) + HSA (1.5 μM), or camptothecin (1.0 μM) + HSA (2.0 μM) in the absence and presence of AS, AME, or AMS (each 20 μM) in PBS (pH 7.4). The filters used retain HSA (66.5 kDa) and albumin-bound ligands. Therefore, the elevated concentration of the site marker in the filtrate indicates its displacement from the protein [30, 36]. The concentrations of warfarin and camptothecin in the filtrate were analyzed by HPLC-FLD, while naproxen was quantified by HPLC-UV as has been previously reported.

[5] = biological target: T2, human serum albumin (HSA); assay: Fluorescence quenching of human serum albumin by mycotoxins; assay type: binding; design: purchased Merck (Darmstadt, Germany); details: for HSA logKSV (±SEM): Stern–Volmer quenching constant KSV in L/mol, linear fitting
Description: as §1, §3, §4

[6] = biological target: T3, porcine serum albumin (PSA) (Sus scrofa, UniProt P08835); assay: Fluorescence quenching of porcine serum albumin by mycotoxins; assay type: binding; details: for PSA logKSV (±SEM): Stern–Volmer quenching constant KSV in L/mol, linear fitting
T3 construct: purchased Merck (Darmstadt, Germany)
T3 sequence (P08835 25-607): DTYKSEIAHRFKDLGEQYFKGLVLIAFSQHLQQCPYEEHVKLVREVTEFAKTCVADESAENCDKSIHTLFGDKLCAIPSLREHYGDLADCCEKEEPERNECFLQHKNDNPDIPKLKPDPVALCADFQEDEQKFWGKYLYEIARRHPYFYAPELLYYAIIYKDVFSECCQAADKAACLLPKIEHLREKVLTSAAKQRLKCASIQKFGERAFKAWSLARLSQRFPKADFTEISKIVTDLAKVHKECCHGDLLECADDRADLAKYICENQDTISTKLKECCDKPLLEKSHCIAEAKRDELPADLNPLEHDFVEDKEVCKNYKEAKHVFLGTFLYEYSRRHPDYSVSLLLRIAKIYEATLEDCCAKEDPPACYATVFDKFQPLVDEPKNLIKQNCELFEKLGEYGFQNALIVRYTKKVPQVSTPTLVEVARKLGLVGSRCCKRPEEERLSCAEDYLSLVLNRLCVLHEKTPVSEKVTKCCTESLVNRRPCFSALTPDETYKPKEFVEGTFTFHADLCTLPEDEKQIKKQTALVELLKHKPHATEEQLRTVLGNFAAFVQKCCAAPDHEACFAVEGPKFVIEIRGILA
Description: as §1, §3, §4

[7] = Fluorescence spectroscopic study of mycotoxin–SGD complexes; assay type: binding; details: for SGD logK (±SEM) BH-Plot / SGD logK (±SEM) Hyperquad: binding constant K in L/mol; for SGD logK (±SEM) BH-Plot: Benesi–Hildebrand plot; for SGD logK (±SEM) BH-Plot / SGD logK (±SEM) Hyperquad / logK with SGD (approximate): sodium acetate buffer pH 5.0; for logK of mycotoxin–SGD complexes at pH 10.0: sodium borate buffer pH 10.0
Description: as §1, §2

[8] = biological target: T4, bovine serum albumin (BSA) (Bos taurus, UniProt P02769); assay: Fluorescence quenching of bovine serum albumin by mycotoxins; assay type: binding; details: for BSA logKSV (±SEM): Stern–Volmer quenching constant KSV in L/mol, linear fitting; for effect of environmental pH on binding to BSA: pH 5.0, 6.5, 7.4, 8.5, AME: pH 8.5 vs acidic and physiological conditions
T4 construct: purchased Merck (Darmstadt, Germany)
T4 sequence (P02769 25-607): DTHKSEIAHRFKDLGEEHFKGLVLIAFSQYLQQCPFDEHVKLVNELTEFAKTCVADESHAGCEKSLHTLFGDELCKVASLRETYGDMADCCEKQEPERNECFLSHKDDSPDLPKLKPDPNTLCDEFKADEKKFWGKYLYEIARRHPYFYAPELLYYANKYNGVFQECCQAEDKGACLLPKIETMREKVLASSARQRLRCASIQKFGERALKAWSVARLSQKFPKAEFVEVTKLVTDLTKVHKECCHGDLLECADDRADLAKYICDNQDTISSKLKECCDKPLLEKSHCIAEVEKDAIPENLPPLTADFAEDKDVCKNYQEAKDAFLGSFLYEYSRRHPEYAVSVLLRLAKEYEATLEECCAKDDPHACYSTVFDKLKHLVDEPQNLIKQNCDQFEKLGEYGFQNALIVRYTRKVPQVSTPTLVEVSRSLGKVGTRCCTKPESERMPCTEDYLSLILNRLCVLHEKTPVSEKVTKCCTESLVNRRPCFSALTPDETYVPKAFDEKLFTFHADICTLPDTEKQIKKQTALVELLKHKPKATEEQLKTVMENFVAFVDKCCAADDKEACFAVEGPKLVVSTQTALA
Description: as §1, §3, §4

[9] = biological target: T2, human serum albumin (HSA); design: purchased Merck (Darmstadt, Germany); method as in PMID 31083629; details: previous study; cited from earlier work
[10] = biological target: T2, human serum albumin (HSA); details: cited from earlier work
rat serum albumin (RSA) [11] = biological target: T1, rat serum albumin (RSA); design: method as in PMID 31083629; details: previous study; cited from earlier work
[12] = binding constant K in L/mol, fluorescence quenching, Hyperquad non-linear fitting, read-out: RSA logK (±SEM) (converted)
[13] = mycotoxin 10 μM, HSA 20, 60, 180 μM, PBS pH 7.4, Equation (3), 1:1 stoichiometry, read-out: logK of mycotoxin–HSA complexes (ultracentrifugation) (converted)
[14] = binding constant K in L/mol, fluorescence quenching, Hyperquad non-linear fitting, PBS pH 7.4, read-out: HSA logK (±SEM) (converted)
[15] = binding constant K in L/mol, fluorescence quenching, Hyperquad non-linear fitting, read-out: PSA logK (±SEM) (converted)
[16] = binding constant K in L/mol, fluorescence quenching, Hyperquad non-linear fitting, read-out: BSA logK (±SEM) (converted)

SMILES | SBECD logK (±SEM) BH-Plot [1] | SBECD logK (±SEM) Hyperquad [1] | RSA logKSV (±SEM) (rat serum albumin (RSA) [2]) | effect on filtered fraction of S-camptothecin (Heme site marker) [4] | effect on filtered fraction of naproxen (Site II marker) [4] | effect on filtered fraction of warfarin (Site I marker) [4] | HSA logKSV (±SEM) ([5]; PBS pH 7.4) | PSA logKSV (±SEM) [6] | SGD logK (±SEM) BH-Plot [7] | SGD logK (±SEM) Hyperquad [7] | logK of mycotoxin–SGD complexes at pH 10.0 [7] | BSA logKSV (±SEM) [8] | effect of environmental pH on binding to BSA [8] | logK with SBECD (approximate) [1] | Kd (rat serum albumin (RSA) [2]; [12]) | Kd [3, 13] | Kd [5, 14] | Kd [6, 15] | logK with SGD (approximate) [7] | Kd [8, 16] | further results
COc1cc(O)c2c(=O)oc3cc(O)cc(C)c3c2c1 [AME, alternariol-9-monomethylether] | 3.46 ± 0.01 | 3.56 ± 0.01 | 5.15 ± 0.06 | no or only slight effects | no or only slight effects | statistically significant (p < 0.05) impact | 4.86 ± 0.05 | 4.73 ± 0.06 | 3.95 ± 0.01 | 4.06 ± 0.01 | 4.25 ± 0.06 | 4.93 ± 0.05 | approximately ten-fold higher affinity | – | – | – | – | – | – | – | stability of AME–SBECD complex compared to CD complexes of the sulfate metabolites ([1]; pH 5.0): three-fold; Kd (rat serum albumin (RSA) [2]): 5130 nM; Kd [3]: 4.57 µM; Kd [5]: 11500 nM; Kd [6]: 14800 nM; stability of AME–SGD complex compared to CD complexes of the sulfate metabolites ([7]; pH 5.0): ten-fold; Kd [8]: 9120 nM
COc1cc(O)c2c(=O)oc3cc(OS(=O)(=O)O)cc(C)c3c2c1 [AMS, alternariol-9-monomethylether-3-sulfate ammonium salt] | 2.96 ± 0.01 | 3.08 ± 0.01 | 5.92 ± 0.03 | large | moderate | did not affect | 5.42 ± 0.06 | 5.60 ± 0.02 | 2.95 ± 0.05 | 3.21 ± 0.04 | 3.39 ± 0.10 | 5.81 ± 0.01 | only minor changes | ≈ 3 | 741 nM | 3.24 µM | 2630 nM | 1660 nM | ≈ 3 | 933 nM | –
Cc1cc(O)cc2oc(=O)c3c(O)cc(O)cc3c12 [AOH, Alternariol] | – | – | – | – | – | – | – | – | – | – | – | – | – | – | – | – | – | – | – | – | displacement of naproxen (Site II marker) from HSA [9]: slightly displaced; displacement of warfarin (Site I marker) from HSA [9]: strongly displaced; effect on filtered fraction of camptothecin (Heme site marker) [9]: did not affect; logK of AOH–HSA complex [10]: 5.6; affinity for rat albumin compared to human or porcine albumins (rat serum albumin (RSA) [11]): almost eight-fold higher affinity
Cc1cc(OS(=O)(=O)O)cc2oc(=O)c3c(O)cc(O)cc3c12 [AS, Alternariol-3-sulfate ammonium salt] | 3.02 ± 0.01 | 3.02 ± 0.03 | 5.85 ± 0.03 | marked increases | lower but significant (p < 0.01) effect | marked increases | 5.44 ± 0.07 | 5.57 ± 0.02 | 2.83 ± 0.01 | 2.99 ± 0.03 | 3.18 ± 0.58 | 5.60 ± 0.01 | only minor changes | ≈ 3 | 832 nM | 3.16 µM | 2450 nM | 1660 nM | ≈ 3 | 1620 nM | –
